Results on 23 molecules are retold here after patent US12358904B2, “Inhibitors of TYK2” (Atomwise Inc., priority 2023, dated 2025).

A value given as a limit tells only on which side of the number the result lay.

One assay concerns the target T1, TYK2-JH2 (Homo sapiens, UniProt P29597).
T1 construct: TYK JH2 enzyme mix (ChemPartnec CP20210818A-BV); purchased ChemPartner CP20210818A-BV
The experiment in a line: TYK2-JH2 HTRF binding assay (ligand efficiency). The note with it: calculated from IC50 of the TYK-JH2 binding assay (Equation 1). As to the method: The following example describes the TYK2-JH2 HTRF binding assay used to determine the ligand efficiency of the TYK2 inhibitors.
To calculate ligand efficiency, Equation 1 is applied:
[formula] in which IC50 comes from the binding assay used to determine compound potency.
TYK JH2 enzyme mix (ChemPartnec CP20210818A-BV), tracer (ChemPartnec CP-0029472-051) and mAb Anti-6HIS Tb cryptate Gold (Cisbio: Cat No. 61H12TLA) mix were prepared in assay buffer (10 mM MgCl2, 20 mM HEPES pH 7.5, 0.01% Triton X-100, 1 mM DTT). Compounds diluted in DMSO (Final Concentrations 0.1 to 0.000005 [μM]) and enzyme mix (0.5 nM Final Concentration) were added to 384 well plates, briefly centrifuged and incubated at room temperature for 10 minutes. After incubation, tracer mix (Tracer-35 nM final concentration); (Mab Anti-6HIS Tb cryptate Gold-0.5× final)) was added, briefly centrifuged then incubate at room temperature 60 minutes. After incubation, plates were read by Envision TR-FRET (Ex340/Em495/520) protocol (PerkinElmer-Envision 2104 multilabel plate reader).

A further assay relates to IL-12/pSTAT4. The experiment in a line: IL-12 induced pSTAT4 assay in NK-92 cells. In kind it is cell-based. The note with it: Homo sapiens, NK92, IL-12 stimulation, read-out: Cellular potency (IL-12/pSTAT4). As for the experimental part: The following example describes the IL-12 induced pSTAT4 assay used to determine the cellular potency (IL-12/pSTAT4) of the TYK2 inhibitors.
NK-92 cells (human natural killer lymphoma cell line) were cultured in MEM α, nucleosides (Life Technologies, 22571020) 12.5% heat inactivated FBS (Dominique Dutscher, S1810), 12.5% heat inactivated Horse serum (Life Technologies, 26050088) and 1% Penicillin-Streptomycin (Life Technologies, 15140122), 5 ng/mL human IL-2 (R&D systems, 202-II/CF), 0.2 mM inositol (Sigma, PHR1351 lot LRAC4118), 0.1 mM β-mercaptoethanol (Life Technologies, 31350010), and 0.02 mM folic acid (Sigma, F8758).
NK-92 cells were starved overnight in starvation medium (Opti-MEM (ThermoFisher, 11058-021), 10% charcoal stripped FBS (ThermoFisher 12676-029), and 1% Penicillin (100U/ml)-Streptomycin (100 μg/ml) (ThermoFisher, ref 15140122)), then plated in a 96-well tissue culture plate (20K cells/well) prior to pre-incubation with test compounds (Final Concentration [nM] 1000 to 0.05) for 30 minutes at 37° C. Cells were stimulated with IL-12 (Final Concentration l0 ng/ml) for 30 minutes at 37° C., and terminated by addition of lysis buffer (MSD K150PAD-2). pSTAT4 (Tyr693) was detected using the Mesa Scale Discovery platform (MSD K150PAD-2), according to manufacturer's instruction. Briefly, cell lysates were added to pre-blocked plates and incubated for 1 hour at room temperature. Plates were washed and incubated with detection antibody for 1 hour at room temperature. Plates were washed and Read Buffer was added prior to measurement on the MSD (1300 MSD Quickplex SQ 120).

T1 sequence (P29597 589-875 limits assumed): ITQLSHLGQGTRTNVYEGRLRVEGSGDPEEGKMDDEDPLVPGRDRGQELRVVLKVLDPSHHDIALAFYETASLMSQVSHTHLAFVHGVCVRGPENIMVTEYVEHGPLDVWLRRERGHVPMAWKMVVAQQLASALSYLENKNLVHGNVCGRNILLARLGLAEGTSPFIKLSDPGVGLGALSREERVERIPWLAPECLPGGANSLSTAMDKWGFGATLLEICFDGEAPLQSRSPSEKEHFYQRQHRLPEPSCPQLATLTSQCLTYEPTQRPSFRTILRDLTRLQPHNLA

For `CC(c1ccc(Nc2ncnc(Nc3ncccc3S(C)(=O)=O)c2F)nc1)N1CC2(COC2)C1` (centres unmarked) [Compound 75, N^4-(5-(1-(2-oxa-6-azaspiro[3.3]heptan-6-yl)ethyl)168yridine-2-yl)-5-fluoro-N^6-(3-(methylsulfonyl)168yridine-2-yl)pyrimidine-4,6-diamine], the “Ligand Efficiency” value at TYK2-JH2 is “† (†: <0.37)”.

As for `C[C@H]1COCCN1c1ccc(Nc2cc(Nc3ccccc3S(C)(=O)=O)ncn2)nc1` [Compound 54, (S)—N^4-(5-(3-methylmorpholino)144yridine-2-yl)-N^6-(2-(methylsulfonyl)phenyl)pyrimidine-4,6-diamine], the “Ligand Efficiency” value on TYK2-JH2 is given as “† (†: <0.37)”. Also, the IC50 in the assay on IL-12/pSTAT4 is more than 1000 nM.

Take `Cn1ccc(Nc2cc(Nc3ccccc3S(C)(=O)=O)ncn2)n1` [Compound 66, N^4-(1-methyl-1H-pyrazol-3-yl)-N^6-(2-(methylsulfonyl)phenyl) pyrimidine-4,6-diamine]: at TYK2-JH2, the “Ligand Efficiency” value is on record as “††† (†††: >0.39)”. Also, the IC50 in the assay with IL-12/pSTAT4 is more than 1000 nM. The like results for `Cc1cccc(Nc2cc(Nc3ccncc3C(N)=O)ncn2)n1` [Compound 51, 4-((6-((6-methylpyridin-2-yl)amino)pyrimidin-4-yl)amino) nicotinamide] were, in that order, “††† (†††: >0.39)” and more than 1000 nM. Consider `CS(=O)(=O)c1cccnc1Nc1cc(Nc2ccc(N3CCC4(CCO4)CC3)cn2)ncn1` [Compound 24, N^4-(5-(1-oxa-7-azaspiro[3.5]nonan-7-yl)104yridine-2-yl)-N^6-(3-(methylsulfonyl)104yridine-2-yl)pyrimidine-4,6-diamine], for which the “Ligand Efficiency” value at TYK2-JH2 is “†† (††: 0.37-0.39)”. Moreover, in the assay with IL-12/pSTAT4, the IC50 was less than 100 nM. `Cn1cc(-c2ccnc(Nc3cc(Nc4ccc(NC5(C)COC5)cn4)ncn3)c2S(C)(=O)=O)cn1` [Compound 72, N^4-(4-(1-methyl-1H-pyrazol-4-yl)-3-(methylsulfonyl)164yridine-2-yl)-N^6-(5-(3-methyloxetan-3-ylamino)164yridine-2-yl)pyrimidine-4,6-diamine]: at TYK2-JH2, the “Ligand Efficiency” value was “† (†: <0.37)”. Further, the IC50 in the assay on IL-12/pSTAT4 was more than 1000 nM. For the molecule `CS(=O)(=O)c1cccnc1Nc1cc(Nc2ccc(C(=O)NC3CC(F)(F)C3)cn2)ncn1` [Compound 38, N-(3,3-difluorocyclobutyl)-6-(6-(3-(methylsulfonyl)pyridine-2-ylamino)pyrimidin-4-ylamino)nicotinamide], the “Ligand Efficiency” value at TYK2-JH2 is “††† (†††: >0.39)”. Further, the IC50 in the assay with IL-12/pSTAT4 was less than 100 nM. As for `Cn1ccc(Nc2cc(Nc3ccccc3C(N)=O)ncn2)n1` [Compound 67, 2-((6-((1-methyl-1H-pyrazol-3-yl)amino)pyrimidin-4-yl)amino)benzamide], the “Ligand Efficiency” value at TYK2-JH2 is recorded as “††† (†††: >0.39)”. Besides, the IC50 in the assay with IL-12/pSTAT4 is more than 1000 nM. As to `Cc1cccc(Nc2cc(Nc3ccccc3C(N)=O)nc(N)n2)n1` [Compound 55, 2-((2-amino-6-((6-methylpyridin-2-yl)amino)pyrimidin-4-yl)amino)benzamide], the “Ligand Efficiency” value at TYK2-JH2 was “†† (††: 0.37-0.39)”. As for `COc1cc(Nc2cc(Nc3ncccc3S(C)(=O)=O)ncn2)ncc1NC1(C)COC1` [Compound 62], on TYK2-JH2, the “Ligand Efficiency” value is given as “†† (††: 0.37-0.39)”. In addition, the IC50 in the assay with IL-12/pSTAT4 is more than 1000 nM. Take `Cc1cccc(Nc2cc(Nc3cccnc3S(C)(=O)=O)ncn2)n1` [Compound 59, N^4-(6-methylpyridin-2-yl)-N^6-(2-(methylsulfonyl)149yridine-3-yl) pyrimidine-4,6-diamine]: at TYK2-JH2, the “Ligand Efficiency” value was “††† (†††: >0.39)”. Also, the IC50 in the assay on IL-12/pSTAT4 is more than 1000 nM. Take `Cc1cccc(Nc2cc(Nc3cccnc3C(N)=O)ncn2)n1` [Compound 50, 3-((6-((6-methylpyridin-2-yl)amino)pyrimidin-4-yl)amino) picolinamide]: the “Ligand Efficiency” value at TYK2-JH2 is recorded as “††† (†††: >0.39)”. Also, the IC50 in the assay with IL-12/pSTAT4 fell in the range of 100 to 1000 nM. Consider `CS(=O)(=O)c1cccnc1Nc1cc(Nc2ccc([C@@H](N3CC4(COC4)C3)C(F)(F)F)cn2)ncn1` [Compound 16, I-N^4-(3-(methylsulfonyl)98yridine-2-yl)-N^6-(5-(2,2,2-trifluoro-1-(2-oxa-6-azaspiro[3.3]heptan-6-yl)ethyl)98yridine-2-yl)pyrimidine-4,6-diamine], for which, on TYK2-JH2, the “Ligand Efficiency” value is recorded as “†† (††: 0.37-0.39)”. The IC50 in the assay on IL-12/pSTAT4 is less than 100 nM. In the case of `Cc1cc(Nc2cc(Nc3ncccc3S(C)(=O)=O)ncn2)nnc1C(C)N1CC2(COC2)C1` (centres unmarked) [Compound 77, N^4-(6-(1-(2-oxa-6-azaspiro[3.3]heptan-6-yl)ethyl)-5-methylpyri 172yridi-3-yl)-N^6-(3-(methylsulfonyl)172yridine-2-yl)pyrimidine-4,6-diamine], at TYK2-JH2, the “Ligand Efficiency” value is listed as “†† (††: 0.37-0.39)”. Besides, the IC50 in the assay on IL-12/pSTAT4 is more than 1000 nM. For `Cc1cccc(Nc2cc(Nc3ccccc3S(C)(=O)=O)nc(N)n2)n1` [Compound 57, N^4-(6-methylpyridin-2-yl)-N^6-(2-(methylsulfonyl)phenyl)pyrimidine-2,4,6-triamine], at TYK2-JH2, the “Ligand Efficiency” value is listed as “††† (†††: >0.39)”. In the case of `CC(C)(c1ccc(Nc2cc(Nc3ncccc3S(C)(=O)=O)ncn2)nc1)N1CC2(CCOCC2)C1` [Compound 33, N^4-(5-(2-(7-oxa-2-azaspiro[3.5]nonan-2-yl)propan-2-yl)118yridine-2-yl)-N^6-(3-(methylsulfonyl)118yridine-2-yl)pyrimidine-4,6-diamine], on TYK2-JH2, the “Ligand Efficiency” value is “†† (††: 0.37-0.39)”. Also, in the assay with IL-12/pSTAT4, the IC50 was less than 100 nM. On to `C[C@@H](c1ccc(Nc2cc(Nc3ncccc3S(C)(=O)=O)ncn2)nc1)N1CC2(CCOC2)C1` [Compound 32, (S)—N^4-(5-(1-(6-oxa-2-azaspiro[3.4]octan-2-yl)ethyl)114yridine-2-yl)-N^6-(3-(methylsulfonyl)114yridine-2-yl)pyrimidine-4,6-diamine], for which, on TYK2-JH2, the “Ligand Efficiency” value was “††† (†††: >0.39)”. In addition, the IC50 with IL-12/pSTAT4 was less than 100 nM. As for `COc1ccnc(Nc2cc(Nc3cccc(C)n3)ncn2)c1S(C)(=O)=O` [Compound 65, N^4-(4-methoxy-3-(methylsulfonyl)155yridine-2-yl)-N^6-(6-methylpyridin-2-yl)pyrimidine-4,6-diamine], at TYK2-JH2, the “Ligand Efficiency” value is “††† (†††: >0.39)”. In the assay on IL-12/pSTAT4, the IC50 is more than 1000 nM. With `CS(=O)(=O)c1ccccc1Nc1cc(Nc2ccc(C(=O)NC3COC3)cn2)ncn1` [Compound 79, 6-((6-((2-(methylsulfonyl)phenyl)amino)pyrimidin-4-yl)amino)-N-(oxetan-3-yl)nicotinamide], on TYK2-JH2, the “Ligand Efficiency” value is given as “†† (††: 0.37-0.39)”. Besides, the IC50 with IL-12/pSTAT4 is more than 1000 nM. As to `Cc1cccc(Nc2cc(Nc3ccccc3S(C)(=O)=O)nc(C)n2)n1` [Compound 56, 2-methyl-N^4-(6-methylpyridin-2-yl)-N^6-(2-(methylsulfonyl)phenyl) pyrimidine-4,6-diamine], the “Ligand Efficiency” value at TYK2-JH2 is listed as “† (†: <0.37)”. As for `C[C@@H](c1ccc(Nc2cc(Nc3ncccc3S(C)(=O)=O)ncn2)nc1)N1CCCC12CCOCC2` [Compound 29, (S)—N^4-(5-(1-(8-oxa-1-azaspiro[4.5]decan-1-yl)ethyl)111yridine-2-yl)-N^6-(3-(methylsulfonyl)111yridine-2-yl)pyrimidine-4,6-diamine], the “Ligand Efficiency” value at TYK2-JH2 was “†† (††: 0.37-0.39)”. In addition, the IC50 in the assay with IL-12/pSTAT4 is less than 100 nM.

In the case of `CS(=O)(=O)c1ccccc1Nc1cc(Nc2ccc(C(=O)NC3CCOC3)cn2)ncn1` (centres unmarked) [Compound 43, 6-(6-(2-(methylsulfonyl)phenylamino)pyrimidin-4-ylamino)-N-(tetrahydrofuran-3-yl)nicotinamide], the “Ligand Efficiency” value at TYK2-JH2 is “†† (††: 0.37-0.39)”. Further, the IC50 in the assay with IL-12/pSTAT4 is more than 1000 nM.

Take `CC1(Nc2ccc(Nc3cc(Nc4ncccc4S(C)(=N)=O)ncn3)nc2)COC1` (centres unmarked) [Compound 73, N^4-(5-((3-methyloxetan-3-yl)amino)166yridine-2-yl)-N^6-(3-(S-methylsulfonimidoyl)166yridine-2-yl)pyrimidine-4,6-diamine]: on TYK2-JH2, the “Ligand Efficiency” value is on record as “††† (†††: >0.39)”.
